The text below walks through data of PubChem BioAssay (NCI).

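How tested: cells in 96-well plates exposed to compound for 48 hours at five concentrations. GI50: concentration for 50% inhibition of growth. TGI is the concentration that stops growth completely.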

Among the test systems are OVCAR-3 ovarian; EKVX NSCLC; HCC-2998 colon; K-562 leukemia; A549 NSCLC; LOX IMVI melanoma; CCRF-CEM leukemia; SNB-19 CNS; MALME-3M melanoma; A498 renal.
Assay in all cases: NCI tumour cell line growth inhibition, 48 h

On to `O=c1[nH]c(=O)n(C2OC3COC2C3O)cc1F` (configuration not stated), for which the TGI in the assay with OVCAR-3 ovarian, in the assay with EKVX NSCLC, in the assay with HCC-2998 colon, in the assay on K-562 leukemia, in the assay on A549 NSCLC and with LOX IMVI melanoma was above 100 µM in each case. Besides, the TGI in the assay on CCRF-CEM leukemia, with SNB-19 CNS and in the assay with MALME-3M melanoma was above 100 µM each time.

As to `N.N.N.N.N.N.O=N[O-].[Br-].[Co+3].[Co+3].[OH3+].[OH3+]`, the GI50 in the assay with EKVX NSCLC is 74.3 µM; in the assay with HCC-2998 colon it was 58.5 µM; in the assay on K-562 leukemia, above 100000 nM; with A549 NSCLC it was above 100 µM; in the assay with LOX IMVI melanoma, above 100 µM; with CCRF-CEM leukemia, above 100000 nM. The GI50 in the assay on SNB-19 CNS and in the assay on MALME-3M melanoma was above 100 µM each time. In addition, the TGI with EKVX NSCLC, with HCC-2998 colon, in the assay on K-562 leukemia, with A549 NSCLC, with LOX IMVI melanoma and with CCRF-CEM leukemia was above 100 µM each time. The TGI in the assay with SNB-19 CNS and in the assay on MALME-3M melanoma was above 100 µM throughout.

As for `CCC(c1cccc(O)c1)C(CC)c1cccc(O)c1` (configuration not stated), the GI50 is 6.2 µM in the assay with OVCAR-3 ovarian; 4.54 µM in the assay on EKVX NSCLC; 5.18 µM in the assay on HCC-2998 colon; 8.58 µM in the assay on A549 NSCLC; 4.07 µM with LOX IMVI melanoma; 13.2 µM in the assay with SNB-19 CNS. Also, the GI50 was 4.35 µM in the assay with A498 renal and 2.1 µM in the assay on MALME-3M melanoma. Besides, the TGI with OVCAR-3 ovarian was found to be 19 µM; with EKVX NSCLC it was 35.7 µM; in the assay with HCC-2998 colon it was 18.3 µM; with A549 NSCLC, 24.2 µM; in the assay with LOX IMVI melanoma it was 16.9 µM; in the assay on SNB-19 CNS, 26 µM. For the same compound, the results for the TGI in the assay on A498 renal and with MALME-3M melanoma were 16.7 µM and 20 µM, respectively.

Regarding `CCOc1ccccc1NC(=O)CCc1nc(=S)[nH][nH]1`, the TGI with OVCAR-3 ovarian, with EKVX NSCLC, with HCC-2998 colon, with K-562 leukemia, in the assay on A549 NSCLC and in the assay with LOX IMVI melanoma was above 100 µM in each case. The TGI in the assay on CCRF-CEM leukemia, with SNB-19 CNS and with MALME-3M melanoma was above 100 µM each time.

In the case of `Cc1cc2c(=O)c3ccccc3[nH]c2c(C(=O)O)c1C`, the TGI in the assay on OVCAR-3 ovarian, in the assay on EKVX NSCLC, in the assay on HCC-2998 colon, in the assay on K-562 leukemia, with A549 NSCLC and with CCRF-CEM leukemia was above 100 µM each time. Further, the TGI in the assay with SNB-19 CNS and in the assay with A498 renal was above 100 µM each time.

Consider `Fc1cccc(Cl)c1/C=N\N=C1c2ccccc2-c2ccccc21`, for which the TGI in the assay on OVCAR-3 ovarian, in the assay on EKVX NSCLC, with K-562 leukemia, in the assay with A549 NSCLC, in the assay on LOX IMVI melanoma and with CCRF-CEM leukemia was above 100 µM throughout. Also, the TGI in the assay on SNB-19 CNS, in the assay on A498 renal and with MALME-3M melanoma was above 100 µM throughout.

In the case of `CCN(CC)c1ccc2c(c1)Nc1cc(=C(C#N)C#N)c3ccccc3c1=N2`, the TGI with OVCAR-3 ovarian, in the assay with EKVX NSCLC, with HCC-2998 colon, in the assay on K-562 leukemia, in the assay with A549 NSCLC and in the assay on LOX IMVI melanoma was above 100 µM each time. Further, the TGI in the assay with SNB-19 CNS, with A498 renal and in the assay on MALME-3M melanoma was above 100 µM each time.

`N#CC(NNC(=O)c1ccccc1O)c1cccc(O)c1` (configuration not stated): the TGI with OVCAR-3 ovarian, with K-562 leukemia, in the assay with A549 NSCLC, with LOX IMVI melanoma, with CCRF-CEM leukemia and in the assay with MALME-3M melanoma was above 100 µM throughout.

Regarding `CC(=O)OC1[C@H]2c3cc4c(cc3CN3CCC(=C[C@@H]1O)C23)OCO4` (some centres not stated), the TGI in the assay with OVCAR-3 ovarian, in the assay with EKVX NSCLC, with HCC-2998 colon, in the assay with K-562 leukemia, with A549 NSCLC and in the assay on LOX IMVI melanoma was above 100 µM in each case. For the same compound, the TGI in the assay with CCRF-CEM leukemia, in the assay on SNB-19 CNS and with MALME-3M melanoma was above 100 µM each time.

Take `Cn1c(=O)c2c(ncn2CN2CCN(Cn3cnc4c3c(=O)n(C)c(=O)n4C)CC2)n(C)c1=O`: the TGI in the assay with OVCAR-3 ovarian is above 100 µM; with EKVX NSCLC, above 100 µM; in the assay on K-562 leukemia it was above 100 µM; in the assay with A549 NSCLC it was above 100 µM; in the assay with LOX IMVI melanoma it was 62.4 µM; in the assay with CCRF-CEM leukemia, 39.5 µM. In addition, the TGI in the assay on SNB-19 CNS, in the assay on A498 renal and in the assay with MALME-3M melanoma was above 100 µM in each case.

`CCCCCCN(CCCCCC)CC(O)c1ccc2c3c(cccc13)CC2` (configuration not stated): the GI50 with OVCAR-3 ovarian was 8.96 µM; with EKVX NSCLC, 6.64 µM; with HCC-2998 colon, 3.07 µM; with A549 NSCLC it was 10.4 µM; in the assay on LOX IMVI melanoma, 3.42 µM; in the assay on SNB-19 CNS it was 11.8 µM. The values for the GI50 in the assay on A498 renal and in the assay on MALME-3M melanoma were 2.31 µM and 14.1 µM, respectively. The TGI amounted to 21.6 µM with OVCAR-3 ovarian; 23.1 µM in the assay with EKVX NSCLC; 9.67 µM in the assay with HCC-2998 colon; 24 µM with A549 NSCLC; 14.6 µM in the assay with LOX IMVI melanoma; 26.6 µM in the assay with SNB-19 CNS. For the same compound, the values for the TGI in the assay with A498 renal and with MALME-3M melanoma were 12 µM and 32.1 µM, respectively.

As for `C/C(=N\NC(N)=S)c1nc2ccc(Cl)cc2[nH]1`, the GI50 was 2.85 µM in the assay with OVCAR-3 ovarian; 0.966 µM in the assay on EKVX NSCLC; 4.1 µM with HCC-2998 colon; 2370 nM in the assay with K-562 leukemia; 2.3 µM in the assay with A549 NSCLC; 2110 nM in the assay on CCRF-CEM leukemia. For the same compound, the GI50 is 3.93 µM with SNB-19 CNS and 7.11 µM with A498 renal. Moreover, the TGI in the assay with OVCAR-3 ovarian was 14.1 µM; in the assay on EKVX NSCLC it was 12.3 µM; in the assay on HCC-2998 colon, 16.4 µM; in the assay with K-562 leukemia, above 50 µM; in the assay with A549 NSCLC, 9.95 µM; in the assay on CCRF-CEM leukemia it was above 50 µM. Further, the TGI is above 50 µM in the assay with SNB-19 CNS and 22.5 µM in the assay with A498 renal.
